Measured values published in patent US8821938B2, “Porous drug matrices and methods of manufacture thereof” (Acusphere, Inc., priority 1999, dated 2014).

What was measured:
Type in all cases: physicochemical
[1] = Drug integrity post processing by HPLC
Method: Drug integrity post processing was assessed by High Pressure Liquid Chromatography (“HPLC”) (Hewlett Packard Series 1100 HPLC). […] For paclitaxel, the chromatographic conditions included a Nucleosil column (5:m, C18, 100A, 250×4.6 mm), a mobile phase of 2 mM H3PO4/Acetonitrile (2:3) at a flow rate of 1.5 mL/min, UV detection at 227 nm, and a run time of 25 min.

[2] = Density of dry powder by Transaxial Pressure (TAP), Micromeritics GeoPyc 1360; settings: consolidation force of 8 Newtons
[3] = Particle size and surface area of drug particles in wetted matrices, Coulter Multisizer II; settings: reconstituted in aqueous media; electrolyte pre-saturated with drug
Method: Particle size analysis was performed using the Coulter Multisizer II with a 50 micron aperture using siphon mode. Electrolyte was pre-saturated with the drug of interest, and filtered through a 0.22 micron filter prior to addition of lots for analysis to ensure that no portion of the drug within the lot would dissolve during the analysis.

SMILES | Purity (drug integrity post processing) [1] | Density [2] | Size (mean particle size of drug particles) [3] | Surface Area (total surface area of drug particles) [3]
COC1=CC(=O)C[C@@H](C)[C@]12Oc1c(Cl)c(OC)cc(OC)c1C2=O [Griseofulvin Bulk, griseofulvin] | 95.7% | 0.80 g/mL | 2.42 microns | 0.88 m^2/mL of microparticles
C[C@]12C=CC(=O)C=C1CC[C@@H]1[C@@H]2C(=O)C[C@@]2(C)[C@H]1CC[C@]2(O)C(=O)CO [Prednisone Bulk, prednisone] | 100% | 0.68 g/mL | 2.07 microns | 1.43 m^2/mL of microparticles
CC(=O)O[C@H]1C(=O)[C@@]2(C)[C@H]([C@H](OC(=O)c3ccccc3)[C@]3(O)C[C@H](OC(=O)[C@H](O)[C@@H](NC(=O)c4ccccc4)c4ccccc4)C(C)=C1C3(C)C)[C@]1(OC(C)=O)CO[C@@H]1C[C@@H]2O [Paclitaxel Bulk, paclitaxel] | 100% |  |  | 
COc1ccc2cc([C@H](C)C(=O)O)ccc2c1 [Naproxen Bulk, naproxen] |  |  | 2.89 microns | 0.66 m^2/mL of microparticles
